Assay results published in patent publication US10660876B2, “Amino compounds for treatment of medical disorders” (Achillion Pharmaceuticals, Inc., priority 2015, dated 2020).

biological target: Human Factor D (Homo sapiens (Human), UniProt P00746); test: Human Factor D Assay; format: biochemical; settings: Table 1; Factor D purified from human serum, 80 nM, substrate Z-L-Lys-SBzl; read-out: IC50
Protocol: Example 12. Human Factor D Assay
Human Factor D (purified from human serum, Complement Technology, Inc.) at 80 nM final concentration is incubated with test compound at various concentrations for 5 minutes at room temperature in 50 mM Tris, 1M NaCl, pH 7.5. A synthetic substrate Z-L-Lys-SBzl and DTNB (Ellman's reagent) are added to final concentrations of 100 μM each. Absorbance at 405 nm (A405) is recorded at 30 second intervals for 30 minutes using a microplate spectrophotometer. IC50 values are calculated by nonlinear regression of complement Factor D reaction rates as a function of test compound concentration.

Chain of Human Factor D (P00746 26-253): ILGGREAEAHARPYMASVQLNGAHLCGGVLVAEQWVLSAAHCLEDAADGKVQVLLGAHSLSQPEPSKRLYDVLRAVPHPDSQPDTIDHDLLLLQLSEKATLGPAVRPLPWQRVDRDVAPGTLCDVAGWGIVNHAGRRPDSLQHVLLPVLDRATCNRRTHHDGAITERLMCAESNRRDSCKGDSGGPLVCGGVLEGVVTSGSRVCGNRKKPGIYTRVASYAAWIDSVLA

SMILES | IC50 [nM]
CC(=O)c1cn(CC(=O)N2C[C@H](F)C[C@H]2C(=O)Nc2cccc(Cl)n2)c2ccc(Nc3cncnc3)cc12 [Compound 6, (2S,4R)-1-(2-(3-acetyl-5-(pyrimidin-5-ylamino)-1H-indol-1-yl)acetyl)-N-(6-chloropyridin-2-yl)-4-fluoropyrrolidine-2-carboxamide] | < 1000
CC(=O)c1cn(CC(=O)N2C[C@H](F)C[C@H]2C(=O)Nc2cncc(Br)n2)c2ccc(Nc3cncnc3)cc12 [Compound 47, (2S,4R)-1-(2-(3-acetyl-5-(pyrimidin-5-ylamino)-1H-indol-1-yl)acetyl)-N-(6-bromopyrazin-2-yl)-4-fluoropyrrolidine-2-carboxamide] | < 1000
CC(=O)c1cn(CC(=O)N2C[C@H](F)C[C@H]2C(=O)Nc2ccc3[nH]c(C)c(C)c3c2)c2ccc(Nc3cncnc3)cc12 [Compound 38, (2S,4R)-1-(2-(3-acetyl-5-(pyrimidin-5-ylamino)-1H-indol-1-yl)acetyl)-N-(2,3-dimethyl-1H-indol-5-yl)-4-fluoropyrrolidine-2-carboxamide] | < 1000
CC(=O)c1cn(C(=O)CN2C[C@H](F)C[C@H]2C(=O)Nc2nnc(-c3ccc(Cl)c(Cl)c3)s2)c2ccc(Nc3cncnc3)cc12 [Compound 39, (2S,4R)-1-(2-(3-acetyl-5-(pyrimidin-5-ylamino)-1H-indol-1-yl)-2-oxoethyl)-N-(5-(3,4-dichlorophenyl)-1,3,4-thiadiazol-2-yl)-4-fluoropyrrolidine-2-carboxamide] | > 10000
CC(=O)c1cn(CC(=O)N2C[C@H](F)C[C@H]2C(=O)NCc2cccnc2)c2ccc(Nc3cncnc3)cc12 [Compound 43, (2S,4R)-1-(2-(3-acetyl-5-(pyrimidin-5-ylamino)-1H-indol-1-yl)acetyl)-4-fluoro-N-(pyridin-3-ylmethyl) pyrrolidine-2-carboxamide] | < 1000
NC(=O)c1nn(CC(=O)N2C[C@H](F)C[C@H]2C(=O)Nc2cccc(-c3ccccc3Cl)c2F)c2ccc(Nc3cnc(C(F)(F)F)nc3)cc12 [Compound 14, 1-(2-((2S,4R)-2-(2′-chloro-2-fluorobiphenyl-3-ylcarbamoyl)-4-fluoropyrrolidin-1-yl)-2-oxoethyl)-5-(2-(trifluoromethyl)pyrimidin-5-ylamino)-1H-indazole-3-carboxamide] | < 1000
CC(=O)c1cn(CC(=O)N2C[C@H](F)C[C@H]2C(=O)NC2CCN(c3ccn(C)n3)C2=O)c2ccc(Nc3cncnc3)cc12 (stereo partly drawn) [Compound 64, (2S,4R)-1-(2-(3-acetyl-5-(pyrimidin-5-ylamino)-1H-indol-1-yl)acetyl)-4-fluoro-N-(1-(1-methyl-1H-pyrazol-3-yl)-2-oxopyrrolidin-3-yl)pyrrolidine-2-carboxamide] | < 1000
NC(=O)c1nn(CC(=O)N2C[C@H](F)C[C@H]2C(=O)Nc2cccc(Cl)n2)c2ccc(Nc3cccnn3)cc12 [Compound 11, 1-(2-((2S,4R)-2-(6-chloropyridin-2-ylcarbamoyl)-4-fluoropyrrolidin-1-yl)-2-oxoethyl)-5-(pyridazin-3-ylamino)-1H-indazole-3-carboxamide] | < 1000
CC(=O)c1cn(CC(=O)N2C[C@H](F)C[C@H]2C(=O)Nc2cccnc2)c2ccc(Nc3cncnc3)cc12 [Compound 31, (2S,4R)-1-(2-(3-acetyl-5-(pyrimidin-5-ylamino)-1H-indol-1-yl)acetyl)-4-fluoro-N-(pyridin-3-yl)pyrrolidine-2-carboxamide] | < 1000
CC(=O)c1cn(CC(=O)N2C[C@H](F)C[C@H]2C(=O)Nc2cccc(-c3ccccc3Cl)c2F)c2ccc(Nc3cncnc3)cc12 [Compound 3, (2S,4R)-1-(2-(3-acetyl-5-(pyrimidin-5-ylamino)-1H-indol-1-yl)acetyl)-N-(2′-chloro-2-fluorobiphenyl-3-yl)-4-fluoropyrrolidine-2-carboxamide] | < 1000
CC(=O)c1cn(CC(=O)N2C[C@H](F)C[C@H]2C(=O)Nc2cc3c(cc2F)OC(F)(F)O3)c2ccc(Nc3cncnc3)cc12 [Compound 35, (2S,4R)-1-(2-(3-acetyl-5-(pyrimidin-5-ylamino)-1H-indol-1-yl)acetyl)-4-fluoro-N-(2,2,6-trifluorobenzo[d] [1,3]dioxol-5-yl)pyrrolidine-2-carboxamide] | < 1000
CC(=O)c1cn(CC(=O)N2C[C@H](F)C[C@H]2C(=O)Nc2ccc(O)cn2)c2ccc(Nc3cncnc3)cc12 [Compound 70, (2S,4R)-1-(2-(3-acetyl-5-(pyrimidin-5-ylamino)-1H-indol-1-yl)acetyl)-4-fluoro-N-(5-hydroxypyridin-2-yl)pyrrolidine-2-carboxamide] | 1000 to 10000
CC(=O)c1cn(CC(=O)N2C[C@H](F)C[C@H]2C(=O)NCc2cccc(Cl)c2)c2ccc(Nc3cncnc3)cc12 [Compound 19, (2S,4R)-1-(2-(3-acetyl-5-(pyrimidin-5-ylamino)-1H-indol-1-yl)acetyl)-N-(3-chlorobenzyl)-4-fluoropyrrolidine-2-carboxamide] | < 1000
CC(=O)c1cn(CC(=O)N2C[C@H](F)C[C@H]2C(=O)Nc2noc(-c3ccccc3Cl)n2)c2ccc(Nc3cncnc3)cc12 [Compound 62, (2S,4R)-1-(2-(3-acetyl-5-(pyrimidin-5-ylamino)-1H-indol-1-yl)acetyl)-N-(5-(2-chlorophenyl)-1,2,4-oxadiazol-3-yl)-4-fluoropyrrolidine-2-carboxamide] | < 1000
CCN1Cc2ccc(NC(=O)[C@@H]3C[C@@H](F)CN3C(=O)Cn3cc(C(C)=O)c4cc(Nc5cncnc5)ccc43)cc2C1=O [Compound 23, (2S,4R)-1-(2-(3-acetyl-5-(pyrimidin-5-ylamino)-1H-indol-1-yl)acetyl)-N-(2-ethyl-3-oxoisoindolin-5-yl)-4-fluoropyrrolidine-2-carboxamide] | < 1000
CC(=O)c1cn(CC(=O)N2C[C@H](F)C[C@H]2C(=O)Nc2cccc3c2CN(c2ccccn2)C3)c2ccc(Nc3cncnc3)cc12 [Compound 27, (2S,4R)-1-(2-(3-acetyl-5-(pyrimidin-5-ylamino)-1H-indol-1-yl)acetyl)-4-fluoro-N-(2-(pyridin-2-yl)isoindolin-4-yl)pyrrolidine-2-carboxamide] | 1000 to 10000
CC(=O)c1cn(CC(=O)N2C[C@H](F)C[C@H]2C(=O)Nc2ccc(OCc3ccccc3)cn2)c2ccc(Nc3cncnc3)cc12 [Compound 45, (2S,4R)-1-(2-(3-acetyl-5-(pyrimidin-5-ylamino)-1H-indol-1-yl)acetyl)-N-(5-(benzyloxy)pyridin-2-yl)-4-fluoropyrrolidine-2-carboxamide] | < 1000
CC(=O)c1cn(CC(=O)N2C[C@H](F)C[C@H]2C(=O)Nc2n[nH]c(C)c2-c2ccccc2)c2ccc(Nc3cncnc3)cc12 [Compound 66, (2S,4R)-1-(2-(3-acetyl-5-(pyrimidin-5-ylamino)-1H-indol-1-yl)acetyl)-4-fluoro-N-(5-methyl-4-phenyl-1H-pyrazol-3-yl)pyrrolidine-2-carboxamide] | < 1000

same assay, conditions: Table 2; Factor D purified from human serum, 80 nM, substrate Z-L-Lys-SBzl; read-out: IC50

SMILES | IC50 [nM]
COCCOc1ncc(Nc2ccc3c(c2)c(C(C)=O)cn3CC(=O)N2C[C@H](F)C[C@H]2C(=O)Nc2cccc(Br)n2)cn1 [Compound 76, (2S,4R)-1-(2-(3-acetyl-5-(2-(2-methoxyethoxy)pyrimidin-5-ylamino)-1H-indol-1-yl)acetyl)-N-(6-bromopyridin-2-yl)-4-fluoropyrrolidine-2-carboxamide] | < 1000

same assay, conditions: Table 3; Factor D purified from human serum, 80 nM, substrate Z-L-Lys-SBzl; read-out: IC50 (Stars)

SMILES | IC50 [nM]
CC(=O)c1nn(CC(=O)N2C[C@H](F)C[C@H]2C(=O)Nc2cccc(Br)n2)c2ccc(Nc3cncc(F)c3)cc12 [Compound 164, (2S,4R)-1-(2-(3-acetyl-5-((5-yl)amino)-1H-indazol-1-yl)acetyl)-N-(6-bromopyridin-2-yl)-4-fluoropyrrolidine-2-carboxamide] | < 1000
CC(=O)c1cn(CC(=O)N2C[C@H](F)C[C@H]2C(=O)NCc2ccccc2)c2ccc(Nc3cccnc3)cc12 [Compound 146, (2S,4R)-1-(2-(3-acetyl-5-(pyridin-3-ylamino)-1H-indol-1-yl)acetyl)-N-benzyl-4-fluoropyrrolidine-2-carboxamide] | < 1000
CC(=O)c1cn(CC(=O)N2CC[C@H]2C(=O)Nc2cccc(C)n2)c2ccc(Nc3cccnc3)cc12 [Compound 159, (S)-1-(2-(3-acetyl-5-(pyridin-3-ylamino)-1H-indol-1-yl)acetyl)-N-(6-methylpyridin-2-yl)azetidine-2-carboxamide] | > 10000
CC(=O)c1nn(CC(=O)N2C[C@H](F)C[C@H]2C(=O)Nc2cccc(Br)n2)c2ccc(Nc3cnc(C)nc3)cc12 [Compound 163, (2S,4R)-1-(2-(3-acetyl-5-((2-methylpyrimidin-5-yl)amino)-1H-indazol-1-yl)acetyl)-N-(6-bromopyridin-2-yl)-4-fluoropyrrolidine-2-carboxamide] | < 1000
CC(=O)c1cn(CC(=O)N2C[C@H](F)C[C@H]2C(=O)NCCCCc2ccccc2)c2ccc(Nc3cncnc3)cc12 [Compound 156, (2S,4R)-1-(2-(3-acetyl-5-(pyrimidin-5-ylamino)-1H-indol-1-yl)acetyl)-4-fluoro-N-(4-phenylbutyl) pyrrolidine-2-carboxamide] | < 1000
CC(=O)c1cn(CC(=O)N2C[C@H](F)C[C@H]2C(=O)NCCCc2ccccc2)c2ccc(Nc3cccnc3)cc12 [Compound 150, (2S,4R)-1-(2-(3-acetyl-5-(pyridin-3-ylamino)-1H-indol-1-yl)acetyl)-4-fluoro-N-(3-phenylpropyl) pyrrolidine-2-carboxamide] | < 1000
CC(=O)c1cn(CC(=O)N2C[C@H](F)C[C@H]2C(=O)NCCc2ccccc2)c2ccc(Nc3cncnc3)cc12 [Compound 154, (2S,4R)-1-(2-(3-acetyl-5-(pyrimidin-5-ylamino)-1H-indol-1-yl)acetyl)-4-fluoro-N-phenethylpyrrolidin-2-carboxamide] | < 1000
